The source of these data is ChEMBL document CHEMBL1131829, “Novel protein kinase C inhibitors: synthesis and PKC inhibition of beta-substituted polythiophene derivatives” (Bioorg Med Chem Lett, 1999).

A value given as a limit tells only on which side of the number the result lay.

The target of this experiment is Protein kinase C (PKC). In words: Inhibition of protein kinase C. The format is protein assay, Rattus norvegicus.
Take `O=Cc1csc(-c2ccc(C=O)s2)c1`: the IC50 is 0.001 M.
The molecule `OCc1csc(-c2ccc(-c3cccs3)s2)c1` came in with an IC50 of 3e-06 M.
Turning to `O=Cc1ccsc1`, the IC50 is reported as over 0.004 M.
Turning to `O=Cc1csc(-c2ccc(-c3ccc(CO)s3)s2)c1`, the half-maximal inhibitory concentration (IC50) amounted to 0.00003 M.
The molecule `OCc1csc(-c2ccc(-c3ccc(CO)s3)s2)c1` registered an IC50 of 0.0003 M.
Molecule `OCc1csc(-c2cccs2)c1` displayed an IC50 of over 0.001 M.
`O=Cc1csc(-c2cccs2)c1` registered an IC50 of 0.0005 M.
`O=Cc1csc(-c2ccc(-c3ccc(C=O)s3)s2)c1` had an IC50 of 7e-07 M.
Under `O=Cc1csc(-c2ccc(-c3cccs3)s2)c1` stands 5e-06 M; under `OCc1ccsc1`, over 0.004 M.
`O=Cc1ccc(-c2ccc(-c3cc(CO)cs3)s2)s1` showed an IC50 of 3e-07 M.
With `OCc1csc(-c2ccc(CO)s2)c1`, the IC50 is over 0.001 M.
`CN1CCN(CCCN2c3ccccc3Sc3ccc(C(F)(F)F)cc32)CC1` [TRIFLUOPERAZINE]: the IC50 was determined as 0.0005 M.

The IC50 is the concentration that inhibits the measured activity by half. A high value points to a need for much substance.
